Source: publication PMC10590419, “Structural and mechanistic insights into the inhibition of respiratory syncytial virus polymerase by a non-nucleoside inhibitor” (Communications Biology, 2023)
Values joined by “and” are separate entries in the source; they are usually repeats but may differ in a detail not shown here. Equal entries are not always repeated. Where two headings read alike, the source gives them in different places.

Target: recombinant RSV L+P (Human respiratory syncytial virus A, UniProt P28887)
Test: Primed single nucleotide incorporation (SNI) gel assay, recombinant RSV L+P
Type: biochemical, Human RSV (strain A2)
Conditions: for pGCG formation, % inhbition / pGCGA formation, % inhbition / pGCGAA formation, % inhbition: le-11, +3 site
Protocol: RNA polymerase reaction samples consisted of 0.2 μM recombinant RSV L-P polymerase, 0.2 μM of an RNA template (Le11 or Tr14), and 400 μM of a short primer (sequences as indicated in the figures), mixed in a buffer containing 50 mM Tris pH 7.4, 2 mM dithiothreitol and 6 mM MgCl2. For the assay in Fig. 1d, reactions were started by adding 100 nM [α-^32P]GTP (3000 Ci/mmol) tracer and incubated at 30 °C for 10 min. […] Reactions were stopped by adding an equal volume of gel loading buffer containing 90% formamide, 50 mM EDTA, 0.05% Xylene Cyanol, and Bromophenol Blue. Samples were denatured at 95 °C for 5 min and run on a 22.5% polyacrylamide urea sequencing gel at 80 W. The gel was transferred onto a Whatman cellulose chromatography paper (Millipore Sigma) and dried on a gel dryer (Bio-Rad) for 1 h. The dried gel was exposed to a phosphor-screen, scanned on a Typhoon phosphorimager (GE Healthcare), and quantified using ImageQuant (GE Healthcare).

[1] = le-11, +1 site, 1 uM, replicates, 1 µM
[2] = tr-14, +1 site, 0.00390625 uM, replicates, 0.00390625 µM
[3] = tr-14, +1 site, 0.0078125 uM, replicates, 0.0078125 µM
[4] = tr-14, +1 site, 0.015625 uM, replicates, 0.015625 µM
[5] = tr-14, +1 site, 0.03125 uM, replicates, 0.03125 µM
[6] = tr-14, +1 site, 0.0625 uM, replicates, 0.0625 µM
[7] = tr-14, +1 site, 0.125 uM, replicates, 0.125 µM
[8] = tr-14, +1 site, 0.25 uM, replicates, 0.25 µM
[9] = tr-14, +1 site, 0.5 uM, replicates, 0.5 µM
[10] = tr-14, +1 site, 1 uM, replicates, 1 µM

Sequence of recombinant RSV L+P (P28887 whole entry): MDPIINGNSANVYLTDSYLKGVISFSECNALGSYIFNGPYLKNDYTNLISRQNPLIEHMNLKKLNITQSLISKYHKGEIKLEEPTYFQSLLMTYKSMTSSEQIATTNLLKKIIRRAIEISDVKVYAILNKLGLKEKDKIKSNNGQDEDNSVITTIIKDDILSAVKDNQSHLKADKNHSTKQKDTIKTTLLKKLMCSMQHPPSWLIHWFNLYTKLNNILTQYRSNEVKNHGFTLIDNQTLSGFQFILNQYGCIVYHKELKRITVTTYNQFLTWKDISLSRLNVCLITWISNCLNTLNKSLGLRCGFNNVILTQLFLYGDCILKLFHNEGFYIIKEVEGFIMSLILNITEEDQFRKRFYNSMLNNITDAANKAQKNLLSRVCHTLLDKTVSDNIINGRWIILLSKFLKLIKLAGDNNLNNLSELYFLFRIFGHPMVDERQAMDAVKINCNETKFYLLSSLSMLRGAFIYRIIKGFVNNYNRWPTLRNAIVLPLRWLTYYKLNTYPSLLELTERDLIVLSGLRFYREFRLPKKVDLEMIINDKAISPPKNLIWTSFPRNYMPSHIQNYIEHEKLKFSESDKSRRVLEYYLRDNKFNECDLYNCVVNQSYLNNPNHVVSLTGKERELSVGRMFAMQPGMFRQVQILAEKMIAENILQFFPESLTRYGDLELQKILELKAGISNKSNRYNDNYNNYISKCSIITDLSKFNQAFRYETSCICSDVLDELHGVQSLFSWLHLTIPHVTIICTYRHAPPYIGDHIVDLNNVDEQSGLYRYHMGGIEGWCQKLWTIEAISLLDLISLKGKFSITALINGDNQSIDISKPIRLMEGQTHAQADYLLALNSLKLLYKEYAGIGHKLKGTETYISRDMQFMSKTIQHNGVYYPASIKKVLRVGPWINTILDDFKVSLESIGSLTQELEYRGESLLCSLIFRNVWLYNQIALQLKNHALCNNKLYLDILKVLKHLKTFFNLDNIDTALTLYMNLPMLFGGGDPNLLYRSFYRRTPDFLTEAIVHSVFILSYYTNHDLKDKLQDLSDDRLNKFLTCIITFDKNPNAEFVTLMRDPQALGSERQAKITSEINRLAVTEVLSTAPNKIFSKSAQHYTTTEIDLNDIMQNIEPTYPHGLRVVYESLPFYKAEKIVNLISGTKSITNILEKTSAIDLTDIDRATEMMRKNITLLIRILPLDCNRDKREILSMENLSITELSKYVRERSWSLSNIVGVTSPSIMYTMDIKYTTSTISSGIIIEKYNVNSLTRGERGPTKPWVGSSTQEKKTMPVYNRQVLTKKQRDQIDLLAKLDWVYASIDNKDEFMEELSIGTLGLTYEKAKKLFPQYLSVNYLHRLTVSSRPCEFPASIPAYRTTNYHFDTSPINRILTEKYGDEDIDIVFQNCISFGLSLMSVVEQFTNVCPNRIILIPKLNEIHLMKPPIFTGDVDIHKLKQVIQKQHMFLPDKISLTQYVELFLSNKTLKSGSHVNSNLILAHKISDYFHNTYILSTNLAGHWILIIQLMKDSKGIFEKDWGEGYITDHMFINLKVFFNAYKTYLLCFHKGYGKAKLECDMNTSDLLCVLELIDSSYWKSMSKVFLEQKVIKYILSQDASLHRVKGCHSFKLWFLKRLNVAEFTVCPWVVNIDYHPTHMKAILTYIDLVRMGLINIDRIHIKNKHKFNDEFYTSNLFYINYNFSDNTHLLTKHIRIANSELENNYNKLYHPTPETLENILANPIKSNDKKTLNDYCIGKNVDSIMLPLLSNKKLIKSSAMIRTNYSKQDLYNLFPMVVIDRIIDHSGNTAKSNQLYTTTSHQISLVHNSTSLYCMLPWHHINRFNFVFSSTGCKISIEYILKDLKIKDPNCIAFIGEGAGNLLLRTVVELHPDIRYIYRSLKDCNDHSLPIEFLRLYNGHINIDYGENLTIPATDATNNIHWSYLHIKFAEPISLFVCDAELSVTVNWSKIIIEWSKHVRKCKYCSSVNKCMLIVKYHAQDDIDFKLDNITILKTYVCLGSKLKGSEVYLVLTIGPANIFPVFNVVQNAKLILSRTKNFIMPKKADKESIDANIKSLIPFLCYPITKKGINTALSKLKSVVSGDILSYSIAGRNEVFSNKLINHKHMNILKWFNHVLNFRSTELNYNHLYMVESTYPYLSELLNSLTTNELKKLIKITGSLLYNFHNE
Sequence of recombinant RSV L+P (P03421 whole entry, further chain): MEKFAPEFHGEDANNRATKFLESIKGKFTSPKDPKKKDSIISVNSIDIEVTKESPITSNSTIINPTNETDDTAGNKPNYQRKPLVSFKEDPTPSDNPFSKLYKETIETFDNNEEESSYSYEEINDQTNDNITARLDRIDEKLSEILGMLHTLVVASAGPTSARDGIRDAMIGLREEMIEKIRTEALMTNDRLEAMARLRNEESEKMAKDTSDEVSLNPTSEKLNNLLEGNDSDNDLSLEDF

COc1cc(C(=O)NC[C@](O)(c2cc(C(C)(C)O)c(F)c(-c3ccc(F)cc3)n2)C(F)(F)F)cc2cc(C)nnc12 [JNJ-8003]
inhibition at 0.5 µM (le-11, +1 site, 0.5 uM, replicates, read-out: pACG formation, % inhibition): 92.2% | inhibition at 0.5 µM (le-11, +1 site, 0.5 uM, replicates, read-out: pACGC formation, % inhibition): 16.5% | inhibition at 0.5 µM (le-11, +1 site, 0.5 uM, replicates, read-out: pACGCG formation, % inhibition): 92% | pACG formation, % inhibition [1]: 87.3809% | pACGCG formation, % inhibition [1]: 94.5412% | inhibition at 1 µM (le-11, +1 site, 1 uM, replicates, read-out: pACG formation, % inhibition): 92.2% | inhibition at 1 µM (le-11, +1 site, 1 uM, replicates, read-out: pACGC formation, % inhibition): 32.4% | inhibition at 1 µM (le-11, +1 site, 1 uM, replicates, read-out: pACGCG formation, % inhibition): 96.1% | pGCG formation, % inhbition (0.00390625 uM, replicates): 23.7355% and 15.5622% | pGCGA formation, % inhbition (0.00390625 uM, replicates): 16.5629% and 19.135% | pGCGAA formation, % inhbition (0.00390625 uM, replicates): 30.4505% and 24.1004% | pGCG formation, % inhbition (0.0078125 uM, replicates): 29.8775% and 21.4895% | pGCGA formation, % inhbition (0.0078125 uM, replicates): 17.4928% and 21.885% | pGCGAA formation, % inhbition (0.0078125 uM, replicates): 52.8128% and 27.8666% | pGCG formation, % inhbition (0.015625 uM, replicates): 50.6818% and 35.2042% | pGCGA formation, % inhbition (0.015625 uM, replicates): 18.8117% and 25.399% | pGCGAA formation, % inhbition (0.015625 uM, replicates): 51.4133% and 43.0842% | pGCG formation, % inhbition (0.03125 uM, replicates): 80.9404% and 57.9787% | pGCGA formation, % inhbition (0.03125 uM, replicates): 58.0899% and 36.3323% | pGCGAA formation, % inhbition (0.03125 uM, replicates): 92.0704% and 68.8528% | pGCG formation, % inhbition (0.0625 uM, replicates): 96.7556% and 96.0463% | pGCGA formation, % inhbition (0.0625 uM, replicates): 77.4419% and 86.4681% | pGCGAA formation, % inhbition (0.0625 uM, replicates): 98.2035% and 97.0821% | pGCG formation, % inhbition (0.125 uM, replicates): 97.7751% and 97.5727% | pGCGA formation, % inhbition (0.125 uM, replicates): 83.7601% and 82.1258% | pGCGAA formation, % inhbition (0.125 uM, replicates): 98.5207% and 97.9021% | pGCG formation, % inhbition (0.25 uM, replicates): 97.8446% and 96.8207% | pGCGA formation, % inhbition (0.25 uM, replicates): 81.8016% and 75.4758% | pGCGAA formation, % inhbition (0.25 uM, replicates): 98.388% and 97.2094% | pGCG formation, % inhbition (0.5 uM, replicates): 96.68% and 97.1903% | pGCGA formation, % inhbition (0.5 uM, replicates): 77.4429% and 81.101% | pGCGAA formation, % inhbition (0.5 uM, replicates): 98.095% and 97.9035% | pGCG formation, % inhbition (1 uM, replicates): 97.6913% and 97.6125% | pGCGA formation, % inhbition (1 uM, replicates): 86.6689% and 82.9875% | pGCGAA formation, % inhbition (1 uM, replicates): 98.8723% and 98.1005% | IC50 (le-11 and tr-14 templates, +1 and +3 site, read-out: IC50 values in the SNI assays): 0.017 to 0.032 µM | pACG formation, % inhibition [2]: 31.6% | pACGAG formation, % inhibition [2]: 12.8614% and 26.6827% | inhibition at 0.00390625 µM (tr-14, +1 site, 0.00390625 uM, replicates, read-out: pACG formation, % inhibition): 28.1% | pACG formation, % inhibition [3]: 29.3% | pACGAG formation, % inhibition [3]: 35.8415% | inhibition at 0.0078125 µM (tr-14, +1 site, 0.0078125 uM, replicates, read-out: pACG formation, % inhibition): 41.6% | inhibition at 0.0078125 µM (tr-14, +1 site, 0.0078125 uM, replicates, read-out: pACGAG formation, % inhibition): 21.3% | pACG formation, % inhibition [4]: 48.5% | pACGAG formation, % inhibition [4]: 57.7598% | inhibition at 0.015625 µM (tr-14, +1 site, 0.015625 uM, replicates, read-out: pACG formation, % inhibition): 62.7% | inhibition at 0.015625 µM (tr-14, +1 site, 0.015625 uM, replicates, read-out: pACGAG formation, % inhibition): 50.6% | pACG formation, % inhibition [5]: 79.8% | pACGAG formation, % inhibition [5]: 90.4225% | inhibition at 0.03125 µM (tr-14, +1 site, 0.03125 uM, replicates, read-out: pACG formation, % inhibition): 93.9% | inhibition at 0.03125 µM (tr-14, +1 site, 0.03125 uM, replicates, read-out: pACGA formation, % inhibition): 19.2% | inhibition at 0.03125 µM (tr-14, +1 site, 0.03125 uM, replicates, read-out: pACGAG formation, % inhibition): 92.2% | pACG formation, % inhibition [6]: 93.7% | pACGAG formation, % inhibition [6]: 96.2948% | inhibition at 0.0625 µM (tr-14, +1 site, 0.0625 uM, replicates, read-out: pACG formation, % inhibition): 95.6% | inhibition at 0.0625 µM (tr-14, +1 site, 0.0625 uM, replicates, read-out: pACGA formation, % inhibition): 23% | inhibition at 0.0625 µM (tr-14, +1 site, 0.0625 uM, replicates, read-out: pACGAG formation, % inhibition): 95.3% | pACG formation, % inhibition [7]: 94.1% | pACGAG formation, % inhibition [7]: 96.5623% | inhibition at 0.125 µM (tr-14, +1 site, 0.125 uM, replicates, read-out: pACG formation, % inhibition): 95.7% | inhibition at 0.125 µM (tr-14, +1 site, 0.125 uM, replicates, read-out: pACGA formation, % inhibition): 18.9% | inhibition at 0.125 µM (tr-14, +1 site, 0.125 uM, replicates, read-out: pACGAG formation, % inhibition): 95.9% | pACG formation, % inhibition [8]: 94.4% | pACGAG formation, % inhibition [8]: 96.9953% | inhibition at 0.25 µM (tr-14, +1 site, 0.25 uM, replicates, read-out: pACG formation, % inhibition): 95.3% | inhibition at 0.25 µM (tr-14, +1 site, 0.25 uM, replicates, read-out: pACGA formation, % inhibition): 21.3% | inhibition at 0.25 µM (tr-14, +1 site, 0.25 uM, replicates, read-out: pACGAG formation, % inhibition): 96.3% | pACG formation, % inhibition [9]: 93.2% | pACGAG formation, % inhibition [9]: 97.0094% | inhibition at 0.5 µM (tr-14, +1 site, 0.5 uM, replicates, read-out: pACG formation, % inhibition): 93.9% | inhibition at 0.5 µM (tr-14, +1 site, 0.5 uM, replicates, read-out: pACGAG formation, % inhibition): 95.7% | pACG formation, % inhibition [10]: 91.9% | pACGAG formation, % inhibition [10]: 97.3064% | inhibition at 1 µM (tr-14, +1 site, 1 uM, replicates, read-out: pACG formation, % inhibition): 92.2% | inhibition at 1 µM (tr-14, +1 site, 1 uM, replicates, read-out: pACGA formation, % inhibition): 39% | inhibition at 1 µM (tr-14, +1 site, 1 uM, replicates, read-out: pACGAG formation, % inhibition): 97%
